The target in assay [1] is T1, EP2 (Homo sapiens, UniProt P43116). Nature of the assay: EP2 binding (Ki). An excerpt:
(§1) U.S. patent application Ser. No. 11/553,143, filed on Oct. 26, 2006, incorporated by reference herein, describes the methods used to obtain the in vitro data in the tables below.

Assay [2] concerns the target T1, EP2. Nature of the assay: EP2 cAMP. The format is cell-based.
Description: as §1

Assay [3] addresses T2, EP4 (Homo sapiens, UniProt P35408). In words: EP4 binding (KI).
Description: as §1

The target in assay [4] is T1, EP2. In words: EP2 flipr. The format is cell-based.
Description: as §1

The target of assay [5] is T2, EP4. In words: EP4 flipr. The format is cell-based.
Description: as §1

T1 sequence (P43116 whole entry): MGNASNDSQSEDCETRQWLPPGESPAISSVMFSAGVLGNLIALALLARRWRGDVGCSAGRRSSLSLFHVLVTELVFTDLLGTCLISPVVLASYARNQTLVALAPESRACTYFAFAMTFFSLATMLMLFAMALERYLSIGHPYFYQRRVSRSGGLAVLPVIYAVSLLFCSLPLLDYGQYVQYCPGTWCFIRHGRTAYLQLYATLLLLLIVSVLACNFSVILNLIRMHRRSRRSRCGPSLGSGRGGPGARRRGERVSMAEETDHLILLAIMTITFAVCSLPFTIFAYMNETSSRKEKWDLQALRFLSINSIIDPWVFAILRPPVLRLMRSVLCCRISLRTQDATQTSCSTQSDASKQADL
T2 sequence (P35408 whole entry): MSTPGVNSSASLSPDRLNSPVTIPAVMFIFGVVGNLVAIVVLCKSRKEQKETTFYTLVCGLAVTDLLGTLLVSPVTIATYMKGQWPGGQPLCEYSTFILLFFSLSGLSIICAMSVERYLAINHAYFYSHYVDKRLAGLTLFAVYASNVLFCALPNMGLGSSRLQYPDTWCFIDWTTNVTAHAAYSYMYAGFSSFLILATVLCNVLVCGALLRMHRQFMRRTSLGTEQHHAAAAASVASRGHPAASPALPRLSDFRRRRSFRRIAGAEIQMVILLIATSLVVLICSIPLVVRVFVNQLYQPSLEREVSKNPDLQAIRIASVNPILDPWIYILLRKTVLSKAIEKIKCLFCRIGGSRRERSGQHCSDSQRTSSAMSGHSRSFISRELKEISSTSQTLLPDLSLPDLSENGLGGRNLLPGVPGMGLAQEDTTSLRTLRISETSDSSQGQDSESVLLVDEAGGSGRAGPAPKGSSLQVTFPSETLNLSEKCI

The term Ki denotes a measure of affinity in units of concentration, obtained from inhibition or displacement. Read a low Ki as a stronger hold on the target. As a reminder, the EC50 is the concentration at which the effect is half-maximal. Read a high EC50 as a less potent agent. On to `CCCCCC(O)c1ccc(N2CC[C@@H](Cl)[C@@H]2COCc2ccc(C(=O)O)s2)cc1` (stereo partly drawn) [5-((((2S,3R)-3-chloro-1-(4-(1-hydroxyhexyl)phenyl)pyrrolidin-2-yl)methoxy)methyl)thiophene-2-carboxylic acid], for which the values for the Ki at EP2 [1] and on EP4 [3] were 1840 nM and over 10000 nM, respectively. The values for the EC50 at EP2 [2] and at EP2 [4] were 339 nM and 2180 nM, respectively.

Regarding `CCCC/C=C/c1ccc(N2CC[C@@H](Cl)[C@@H]2COCc2ccc(C(=O)O)s2)cc1` [5-((((2S,3R)-3-chloro-1-(4-((E)-hex-1-enyl)phenyl)pyrrolidin-2-yl)methoxy)methyl)thiophene-2-carboxylic acid], the Ki on EP2 [1] is 3010 nM; at EP4 [3], 1490 nM. The EC50 was 327 nM at EP2 [2], over 10000 nM at EP4 [5] and 8420 nM on EP2 [4].

Turning to `CCCCCC(=O)c1ccc(N2CC[C@@H](Cl)[C@@H]2COCc2ccc(C(=O)O)s2)cc1` [5-((((2S,3R)-3-chloro-1-(4-hexanoylphenyl)pyrrolidin-2-yl)methoxy)methyl)thiophene-2-carboxylic acid], the Ki at EP2 [1] was determined as 85 nM; on EP4 [3] it was 1020 nM. Besides, the EC50 is 17 nM on EP2 [2], over 10000 nM on EP4 [5] and 3810 nM at EP2 [4].

Values taken from patent publication US7498447B2, “Therapeutic compounds” (Allergan, Inc., priority 2006, dated 2009).
